This is an account of results in PubChem BioAssay AID330 (DTP/NCI, 2004).

The subject of this assay is P388 leukemia ip, CD2F1 mice, survival T/C. The experiment in a line: NCI In Vivo Anticancer Drug Screen. Data for tumor model P388 Leukemia (intraperitoneal) in CD2F1 (CDF1) mice. As to conditions: endpoint: median survival time, higher = longer survival. The procedure, abridged:
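Mice carrying the transplanted tumor received test compound or vehicle. Survival was recorded in each group, and the value is the treated-group measurement divided by that of the vehicle-treated control group.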

The mark [1] stands for this setting: dose: 50.0 mg/kg/injection, schedule: Q01DX005 (ip), vehicle: Klucel (hydroxypropylcellulose) (HPC).
The mark [2] stands for this setting: dose: 100.0 mg/kg/injection, schedule: Q01DX005 (ip), vehicle: Klucel (hydroxypropylcellulose) (HPC).

“And” between values parts separate entries of the source, which are not always exact repeats. Identical values can stand only once. Toxic doses and inconclusive results are not listed. Bridge positions count the residues as written; N and C are the ends. Square brackets hold non-standard residues; d marks the D form. Peptide text beside a SMILES is read from it. I, II: the chains in the order shown. * marks the point of attachment. Quinoxaline2carbonyl = O=C(c1cnc2ccccc2n1)*; NMeV = CN[CH](C(=O)O)C(C)C; NMeC = CN[CH](CS)C(=O)O

Consider `CCCCC(=O)OCC(=O)[C@]1(O)Cc2c(O)c3c(c(O)c2[C@@H](OC2CC(NC(=O)C(F)(F)F)C(O)C(C)O2)C1)C(=O)c1c(OC)cccc1C3=O` (stereo partly specified), for which the T/C runs as follows: (dose: 0.5 mg/kg/injection, schedule: Q04DX003 (ip), vehicle: saline with Tween-80) 98 % of control; (dose: 1.0 mg/kg/injection, schedule: Q04DX003 (ip), vehicle: saline with Tween-80) 104 % of control; (dose: 1.4 mg/kg/injection, schedule: Q01DX009 (ip), vehicle: clinical formulation) 124 % of control; (dose: 2.0 mg/kg/injection, schedule: Q04DX003 (ip), vehicle: saline with Tween-80) 99 % of control and 101 % of control; (dose: 4.0 mg/kg/injection, schedule: Q04DX003 (ip), vehicle: saline with Tween-80) 100 % of control and 101 % of control and 105 % of control; (dose: 6.48 mg/kg/injection, schedule: Q01DX009 (ip), vehicle: clinical formulation) 162 % of control. Besides, the T/C reads like this: (dose: 8.0 mg/kg/injection, schedule: Q04DX003 (ip), vehicle: saline with Tween-80) 114 % of control and 121 % of control and 97 % of control; (dose: 9.38 mg/kg/injection, schedule: Q04DX003 (ip), vehicle: clinical formulation) 111 % of control; (dose: 10.8 mg/kg/injection, schedule: Q01DX009 (ip), vehicle: clinical formulation) 189 % of control and 193 % of control; (dose: 13.0 mg/kg/injection, schedule: Q04DX003 (ip), vehicle: clinical formulation) 124 % of control; (dose: 16.0 mg/kg/injection, schedule: Q04DX003 (ip), vehicle: saline with Tween-80) 121 % of control; (dose: 18.0 mg/kg/injection, schedule: Q01DX009 (ip), vehicle: clinical formulation) 224 % of control and 232 % of control. Also, the T/C is 118 % of control (dose: 18.75 mg/kg/injection, schedule: Q04DX003 (ip), vehicle: clinical formulation); 196 % of control and 333 % of control (dose: 30.0 mg/kg/injection, schedule: Q01DX004 (ip), vehicle: distilled water + Tween-80); 303 % of control and 560 % of control (dose: 30.0 mg/kg/injection, schedule: Q01DX009 (ip), vehicle: clinical formulation); 156 % of control (dose: 32.4 mg/kg/injection, schedule: Q04DX003 (ip), vehicle: clinical formulation); 163 % of control (dose: 36.0 mg/kg/injection, schedule: Q04DX003 (ip), vehicle: clinical formulation); 123 % of control (dose: 37.5 mg/kg/injection, schedule: Q04DX003 (ip), vehicle: clinical formulation). Besides, the T/C reads like this: (dose: 37.5 mg/kg/injection, schedule: Q04DX003 (ip), vehicle: saline with Tween-80) 156 % of control; (dose: 37.5 mg/kg/injection, schedule: Q04DX003 (iv), vehicle: saline with Tween-80) 120 % of control; (dose: 40.0 mg/kg/injection, schedule: Q01DX004 (ip), vehicle: distilled water + Tween-80) 171 % of control; (dose: 50.0 mg/kg/injection, schedule: Q01DX004 (ip), vehicle: distilled water + Tween-80) 91 % of control; (dose: 50.0 mg/kg/injection, schedule: Q01DX009 (ip), vehicle: clinical formulation) 110 % of control; (dose: 54.0 mg/kg/injection, schedule: Q04DX003 (ip), vehicle: clinical formulation) 193 % of control. Further, the T/C is 89 % of control (dose: 60.0 mg/kg/injection, schedule: Q01DX004 (ip), vehicle: distilled water + Tween-80); 219 % of control (dose: 60.0 mg/kg/injection, schedule: Q04DX003 (ip), vehicle: clinical formulation); 153 % of control and 161 % of control (dose: 64.0 mg/kg/injection, schedule: Q04DX003 (ip), vehicle: saline with Tween-80); 189 % of control (dose: 75.0 mg/kg/injection, schedule: Q04DX003 (ip), vehicle: clinical formulation); 180 % of control (dose: 75.0 mg/kg/injection, schedule: Q04DX003 (ip), vehicle: saline with Tween-80); 106 % of control (dose: 75.0 mg/kg/injection, schedule: Q04DX003 (iv), vehicle: saline with Tween-80). Further, the T/C was 219 % of control (dose: 90.0 mg/kg/injection, schedule: Q04DX003 (ip), vehicle: clinical formulation); 242 % of control (dose: 100.0 mg/kg/injection, schedule: Q04DX003 (ip), vehicle: clinical formulation); 168 % of control and 180 % of control and 201 % of control (dose: 128.0 mg/kg/injection, schedule: Q04DX003 (ip), vehicle: saline with Tween-80); 243 % of control and 270 % of control (dose: 150.0 mg/kg/injection, schedule: Q04DX003 (ip), vehicle: saline with Tween-80); 153 % of control (dose: 150.0 mg/kg/injection, schedule: Q04DX003 (iv), vehicle: saline with Tween-80); 173 % of control and 190 % of control and 257 % of control (dose: 256.0 mg/kg/injection, schedule: Q04DX003 (ip), vehicle: saline with Tween-80). Besides, the T/C is, setting by setting: (dose: 300.0 mg/kg/injection, schedule: Q04DX003 (ip), vehicle: clinical formulation) 87 % of control; (dose: 300.0 mg/kg/injection, schedule: Q04DX003 (ip), vehicle: saline with Tween-80) 252 % of control; (dose: 300.0 mg/kg/injection, schedule: Q04DX003 (iv), vehicle: saline with Tween-80) 222 % of control; (dose: 512.0 mg/kg/injection, schedule: Q04DX003 (ip), vehicle: saline with Tween-80) 117 % of control; (dose: 600.0 mg/kg/injection, schedule: Q04DX003 (iv), vehicle: saline with Tween-80) 169 % of control; (dose: 1024.0 mg/kg/injection, schedule: Q04DX003 (ip), vehicle: saline with Tween-80) 107 % of control.
On to `COc1cc(C(O)(CCN2CCOCC2)c2ccc3c(c2)OCO3)cc(OC)c1OC` (stereo unspecified), for which the T/C runs as follows: under setting [1], 91 % of control; under setting [2], 87 % of control.
In the same order, the values of `CCCCOC(C(=O)OCCN(CC)CC)(c1ccccc1)c1ccccc1` are 108 % of control and 100 % of control.
In the case of `CCC1C(=O)OCCOCCOCCOCCOC1=O`, the T/C is 106 % of control (dose: 100.0 mg/kg/injection, schedule: Q04DX003 (ip), vehicle: Klucel (hydroxypropylcellulose) (HPC)); 100 % of control (dose: 200.0 mg/kg/injection, schedule: Q04DX003 (ip), vehicle: Klucel (hydroxypropylcellulose) (HPC)); 107 % of control (dose: 400.0 mg/kg/injection, schedule: Q04DX003 (ip), vehicle: Klucel (hydroxypropylcellulose) (HPC)).
As for `Cc1c2oc3c(C)ccc(C(=O)NC4C(=O)NC(C(C)C)C(=O)N5CCCC5C(=O)N(C)CC(=O)N(C)C(C(C)C)C(=O)OC4C)c3nc-2c(C(=O)NC2C(=O)NC(C(C)C)C(=O)N3CCCC3C(=O)N(C)CC(=O)N(C)C(C(C)C)C(=O)OC2C)c(Cl)c1=O` (stereo unspecified), the T/C is 98 % of control (dose: 0.05 mg/kg/injection, schedule: Q01DX009 (ip), vehicle: water); 96 % of control (dose: 0.1 mg/kg/injection, schedule: Q01DX009 (ip), vehicle: water); 114 % of control (dose: 0.2 mg/kg/injection, schedule: Q01DX009 (ip), vehicle: water); 106 % of control (dose: 0.4 mg/kg/injection, schedule: Q01DX009 (ip), vehicle: water); 110 % of control (dose: 0.8 mg/kg/injection, schedule: Q01DX009 (ip), vehicle: water); 150 % of control (dose: 3.13 mg/kg/injection, schedule: Q01DX009 (ip), vehicle: water). Moreover, the T/C was 172 % of control (dose: 6.25 mg/kg/injection, schedule: Q01DX009 (ip), vehicle: water); 171 % of control (dose: 6.4 mg/kg/injection, schedule: Q01DX009 (ip), vehicle: water); 172 % of control and 243 % of control (dose: 12.5 mg/kg/injection, schedule: Q01DX009 (ip), vehicle: water); 101 % of control and 256 % of control (dose: 25.0 mg/kg/injection, schedule: Q01DX009 (ip), vehicle: water).
For `CC1NC(=O)C(NC(=O)c2cnc3ccccc3n2)COC(=O)C(C(C)C)N(C)C(=O)C2CSSCC(C(=O)N(C)C(C(C)C)C(=O)OCC(NC(=O)c3cnc4ccccc4n3)C(=O)NC(C)C(=O)N2C)N(C)C1=O` (stereo unspecified) (I: Quinoxaline2carbonyl-SA[NMeC][NMeV] / II: Quinoxaline2carbonyl-SA[NMeC][NMeV]; ester I:1-II:C, I:C-II:1; disulfide I:3-II:3; configuration not given here), the T/C (dose: 25.0 micrograms/kg/injection, schedule: Q01DX009 (ip), vehicle: water) was 150 % of control; the T/C (dose: 50.0 micrograms/kg/injection, schedule: Q01DX009 (ip), vehicle: water) was 153 % of control; the T/C (dose: 100.0 micrograms/kg/injection, schedule: Q01DX009 (ip), vehicle: water) was 185 % of control.
For the compound `C/C(=N\NC(=S)N1CCN(c2ncccn2)CC1)c1ccccn1`, the T/C was 119 % of control (dose: 6.25 mg/kg/injection, schedule: Q01DX005 (ip), vehicle: saline with Tween-80) and 119 % of control (dose: 12.5 mg/kg/injection, schedule: Q01DX005 (ip), vehicle: saline with Tween-80).
On to `Cc1c2c(cc3c4ccccc4n(C)c13)C(=O)NC2=O`, for which the T/C reads like this: (dose: 50.0 mg/kg/injection, schedule: Q01DX005 (ip), vehicle: saline with Tween-80) 91 % of control; (dose: 100.0 mg/kg/injection, schedule: Q01DX005 (ip), vehicle: saline with Tween-80) 90 % of control.
